Values after ≈ are worked out from the molar mass of the structure shown.

The nature of data set [1]: Water solubility. It is filed as physicochemical. The conditions noted are these: read-out: Water solublity.
Data set [2] can be described thus: Solubility in lipofullerene base, confirmed by a turbidometer. Here is the method: Each of the above mixtures were sonicated for 30 seconds followed by vortexing for 12 hours in the dark.
Data set [3] has as its system AsPC-1 cells. The experiment in a line: Xenograft studies. It is filed as in vivo, nude mice. To be noted: oral gavage, 1 mg of triptolide/1 mL of C60-olive oil base, ~28 days. How it is done:
AsPC-1 cells were purchased from American Type Culture Collection (ATCC). Cells were harvested from sub-confluent cultures after brief exposure to 0.25% trypsin and 0.2% EDTA. The cells were washed once in serum-free medium and re-suspended thereafter in PBS. Only suspensions consisting of single cells with >90% viability were used for the injections. Mice were injected with 1.5×10^6 cells sub-cutaneously (S.C) on the right side of hind leg of each mouse using a 23-gauge needle. After tumor transplant, the mice were observed daily for one week, before randomly assigning them to the treatment groups (n=5). The animals thereafter received triptolide (1 mg of triptolide/1 mL of C60-olive oil base) by oral gavage starting on day 15 or on tumor volume reaching ˜40-70 mm^3. The treatment was continued until ˜28 days from first dose. […] Tumor size was measured once a week. At the end of the experimental period, the animals were euthanized.

On to `CC[C@@]1(O)C(=O)OCc2c1cc1n(c2=O)Cc2cc3ccccc3nc2-1` [camptothecin], for which the solubility in data set [1] stood at 107 µg/mL (≈ 307 µM). The compound further displayed a Fold solubility in data set [2] (lipofullerene base compared to solubility in water) of 5.
In data set [2] (12 h), `CC(=O)O[C@@]12CO[C@@H]1C[C@H](O)[C@@]1(C)C(=O)[C@H](O)C3=C(C)[C@@H](OC(=O)[C@H](O)[C@@H](NC(=O)OC(C)(C)C)c4ccccc4)C[C@@](O)([C@@H](OC(=O)c4ccccc4)[C@H]21)C3(C)C` [docetaxel] came in with a Fold solubility of more than 100.
Take `C#Cc1cccc(Nc2ncnc3cc(OCCOC)c(OCCOC)cc23)c1` [erlotinib]: the solubility in data set [1] came out at 400 µg/mL (≈ 1020 µM). The compound further gave a Fold solubility in data set [2] (12 h) of 3.
Taken in the same sequence, the figures for `CC(=O)O[C@H]1C(=O)[C@@]2(C)[C@H]([C@H](OC(=O)c3ccccc3)[C@]3(O)C[C@H](OC(=O)[C@H](O)[C@@H](NC(=O)c4ccccc4)c4ccccc4)C(C)=C1C3(C)C)[C@]1(OC(C)=O)CO[C@@H]1C[C@@H]2O` [paclitaxel] were 5.56 µg/mL (≈ 6.51 µM) and 90.
Take `CC(C)[C@]12O[C@H]1[C@@H]1O[C@]13[C@]1(O[C@H]1C[C@H]1C4=C(CC[C@@]13C)C(=O)OC4)[C@@H]2O` [triptolide]: the tumor size entry in data set [3] (50 μg/kg), in data set [3] (100 μg/kg) and in data set [3] (250 μg/kg) was “tumor regression was observed” throughout. Also, the “amount of triptolide dissolved in lipofullerene base” value in data set [2] (lipofullerene base of Example 1, nitrogen gas atmosphere, stirred for 2 hours) is “About 2 gm/1000 mL”.
On to `CC[C@]1(O)C[C@H]2CN(CCc3c([nH]c4ccccc34)[C@@](C(=O)OC)(c3cc4c(cc3OC)N(C=O)[C@H]3[C@@](O)(C(=O)OC)[C@H](OC(C)=O)[C@]5(CC)C=CCN6CC[C@]43[C@@H]65)C2)C1` [vincristine], for which the solubility in data set [1] amounted to 30 µg/mL (≈ 36.4 µM). This compound also came in with a Fold solubility in data set [2] (12 h) of 17.

The values above are taken from US10342797B2, “Solubility of therapeutic agents” (LivePet LLC, priority 2016, dated 2019).
